How the values were obtained:
[1] = system: natural antibody function; experiment: Pig to cynomolgus kidney transplants; type: in vivo; conditions: 6 mg/kg/day, i.v.
Description: As is discussed herein, contacting the recipient's blood with galactosyl (α1, 3) galactose epitopes can be used to deplete the host of natural antibodies. Other methods for depleting or otherwise inactivating natural antibodies can be used with any of the methods described herein. For example, drugs which inactivate natural antibodies, e.g., deoxyspergualin (DSG) (Bristol), or anti-IgM antibodies, can be administered to the recipient of an allograft or a xenograft. One or more of, DSG (or similar drugs), anti-IgM antibodies, and hemoperfusion, can be used to inactivate recipient natural antibodies in methods of the invention.

[2] = system: galactosyl α(1, 3) galactose-reactive natural antibodies in human serum; experiment: Competitive ELISA with αGal/BSA or bovine thyroglobulin coated plates; type: binding
Experimental: In order to facilitate the detection of galactosyl α(1, 3) galactose-reactive antibodies in human serum samples, an ELISA system using αGal/BSA as the antigen was used. αGal/BSA (provided by BioTransplant, Inc.) was used to coat 96 well polystyrene plates (Costar) at a concentration of 10 μg/ml in PBS overnight at 4° C. Plates coated with BSA were included to control for background reactivity to BSA. Wells were blocked for 1-2 hours at room temperature with 1% BSA in TBS (100 mM Tris-HCl, pH 7.5, 0.9% NaCl). All plates were washed three times with 0.1% Tween-20 in TBS (TBS/Tween) using a Skatron plate washer (Skatron Instruments, Inc., Sterling, Va.). Serial dilutions of human serum from a single donor were used as the standard positive controls. XNA^− (see Example 3) was used as the negative control. Samples were aliquoted in triplicate and allowed to incubate at room temperature for 1 hour. After washing three times with TBS/Tween, the plates were incubated with alkaline phosphatase conjugated mouse monoclonal anti-human IgG or IgM antibody (Sigma Chemical Co., St. Louis, Mo.) for 1-2 hours at room temperature in the dark. The plates were washed and developed with Sigma 104 alkaline phosphatase substrate tablets in carbonate buffer (0.203 g MgCl2, 2.2 g Na2CO3, 2.43 g. NaHCO3 in 1 L. water). The amount of colored product was measured at 405 nm using the SLT Lab Instruments 340 ATC ELISA reader. For competitive ELISA, bovine thyroglobulin and αGal/BSA were serially diluted ten-fold in TBS to final concentrations of 1 mg/ml to 1 ng/ml. Equal volumes of human serum and competitor were combined and incubated for 1 hour at 4° C. The competition reactions were then aliquoted to antigen coated plates and incubated for 1 hour at room temperature. The plates were washed and incubated with alkaline phosphatase conjugated mouse monoclonal anti-human IgG or IgM antibody (Sigma Chemical Co., St. Louis, Mo.) for 1 hour at room temperature. The wells were washed and developed with Sigma 104 alkaline phosphatase substrate. All samples were analyzed in triplicate.

[3] = system: human natural antibodies (IgG, IgM) binding to porcine PBMC; experiment: Competitive binding assay, flow cytometry: human natural antibody binding to porcine PBMC; conditions: human serum pre-incubated with competitor at 1 mg/ml
Experimental: FIG. 1 (Panels A, B, C, D) is a set of graphs which show α1,3Gal/BSA-inhibition of human natural antibody binding to pig cells. Human serum (20 μl) was preincubated with αGal/BSA (Panels A,C) or bovine thyroglobulin (Panels B,D) at concentrations of 1,000 μg/ml (b) or 0.1 μg/ml (c) prior to staining of porcine peripheral blood mononuclear cells (pPBMCs). The negative control (a) consisted of pPBMC plus an equivalent volume of galactosyl α(1, 3) galactose reactive natural antibody-depleted human serum (XNA^−) while the positive control was 20 μl human serum without competitor (d). Following incubation with the human serum, the cells were stained with either anti-human IgG (Panels A,B) or anti-human IgM (Panels C,D).
Human sera were obtained from healthy adult volunteers. Individual samples were isolated and stored at 4° C. for short periods or aliquoted and stored at −70° C. Porcine peripheral blood mononuclear cells (pPBMC) were isolated from heparinized whole blood obtained from an inbred miniature swine herd and resuspended in flow cytometric analysis staining buffer (Hank's Buffered Saline Solution (HBSS), 2.0% fetal calf serum, 0.04% sodium azide (Sigma Chemical Co., St. Louis, Mo.)) to a final concentration of 1×10^7 pPBMC/ml.
Human serum (15 μl) was pre-incubated with serially diluted αGal/BSA, bovine thyroglobulin (Sigma Chemical Co., St. Louis, Mo.) or BSA (Fisher Scientific, Pittsburgh, Pa.) at final concentrations of 1 mg/ml to 1 ng/ml for 90 minutes at 4° C. with gentle rocking. Fifty μl of pPBMC (5×10^5 cells) was incubated with 50 μl of human serum plus competitor for 90 minutes at 4° C. The positive control consisted of staining with human serum alone and the negative control was human serum depleted of natural antibodies (XNA^−). The cells were processed for all subsequent steps in the same way as for direct flow cytometric analysis (DerSimonian, H. M. et al. (1993) J. Exp. Med. 177:1623).

[4] = Stability of αGal/BSA in the ELISA system in the presence of human serum; type: physicochemical; conditions: 37° C. for up to 24 hours
Experimental: To ensure that the galactosyl α(1, 3) galactose epitope was stable under these conditions, experiments were performed to determine if there was any detectable hydrolysis of the galactosyl α(1, 3) galactose carbohydrate moiety in the presence of human serum.

| concentration necessary to block binding of αGal-reactive natural antibodies to αGal/BSA ([2]; competitive ELISA, αGal/BSA as antigen) | inhibition of binding of serum natural antibodies to αGal/BSA ([2]; pre-incubation of serum with competitor) | concentration that completely inhibited binding of human IgG and IgM to bovine thyroglobulin ([2]; competitive ELISA, bovine thyroglobulin as antigen) | Compound | suppression of natural antibody function [1] | decrease in IgG binding to pig cells (median fluorescence intensity) [3] | reduction of IgM binding to pig cells (median fluorescence intensity) [3] | stability (hydrolysis of the galactosyl α(1, 3) galactose moiety) in the ELISA system [4] |
| --- | --- | --- | --- | --- | --- | --- | --- |
|  |  |  | N=C(N)NCCCCCCC(=O)NC(O)C(=O)NCCCCNCCCN (stereo not drawn) [DSG, deoxyspergualin] | useful in suppressing natural antibody function |  |  |  |
| 100-1,000 μg/ml | completely inhibited |  | Bovine thyroglobulin: galactosyl α(1, 3) galactose containing molecule, estimated eleven naturally occurring residues, 300 kD (Sigma) |  | 79% | 66% |  |
|  |  | 1 µg/mL | αGal/BSA: synthetic conjugate with fifteen to thirty-nine αGal moieties per BSA molecule, 70 kD |  | 84% | 94% | stable |
